{"source": "patent US5599548A", "about": "“Skin care compositions containing fatty acid amides and retinol or retinyl ester” (priority 1995, dated 1997)", "key": {"[1]": {"tested_on": "TGase I (keratinocyte transglutaminase level)", "test": "Transglutaminase (TGase I) ELISA assay (keratinocyte differentiation)", "type": "cell-based, human", "conditions": "for activity at 0.1 µM / mean TGase level ± s.d: 72 h, ROH 2.5 × 10^-7 M; for effect on keratinocyte TG1 levels / differentiation, in words: concentrations as in the respective Example", "experimental": "(§1) Human keratinocytes, isolated from neonatal foreskin by trypsin treatment were grown in Dulbecco Modification Eagle (DME) Hams F12 (1:1) medium/10% fetal calf serum in the presence of irradiated 3T3 mouse fibroblasts for establishing dividing keratinocyte colonies. Cells were grown under the above condition until their second passage and kept frozen for future use. […] On day 7, when the cells were 80-90% confluent, they were trypsinized and plated in the serum-free medium for the various experiments.\nDuring the process of terminal differentiation in the epidermis, a 15 nm thick layer of protein, known as the cornified envelope (CE) is formed on the inner surface of the cell periphery. The CE is composed of numerous distinct proteins which have been cross-linked together by the formation of N^ε -(γ-glutamyl) lysine isodipeptide bonds catalyzed by the action of at least two different transglutaminases (TGases) expressed in the epidermis. TGase I is expressed in abundance in the differentiated layers of the epidermis, especially the granular layer, but is absent in the undifferentiated basal epidermis. Thus TGase I is a useful marker of epidermal keratinocyte differentiation with high TGase I levels indicating a more differentiated state. An ELISA based TGase I assay, using a TGase I antibody, was used to assess the state of differentiation of the cultured keratinocytes in the examples that follow.\nKeratinocytes (cultured as described above) were plated in 96 well plates at a density of 3,000 cells per well in 200 μl media. After incubation for four days the media was changed to media containing test compounds (six replicates per test). The cells were cultured for a further 72 hours after which time the media was aspirated and the plates stored at -70° C. Plates were removed from the freezer, and the cells washed with PBS. 100 μl sterile water was added and the cells were freeze fractured by freezing at -70° C. then thawing. The cells were incubated for one hour at room temperature (R/T) with PBS/3% BSA (wash buffer, bovine serum albumin), then rinsed with a fresh aliquot of wash buffer. Cells were incubated with 50 μl of primary antibodies monoclonal anti-human transglutaminase (IgG) obtained from Amersham (mouse) diluted 1:300 in wash buffer for one hour, 37° C. then rinsed two times with wash buffer. Cells were then incubated with 50 μl of secondary antibody (Feb fragment, peroxidase conjugated anti-mouse IgG obtaining from Amersham) diluted 1:200 in wash buffer for one hour at 37° C., then rinsed two times with wash buffer. Cells were incubated with substrate solution (4 mg o-phenylene diamine and 3.3 μl 30% H2 O2 in 10 ml 0.1M citrate buffer pH 5.0) for five minutes, R/T, in darkness (under aluminum foil). The reaction was stopped by the addition of 50 μl 4N H2 SO4. The absorbance of samples was read at 492 nm in the plate reader. Out of the six replicates, four were treated with both antibodies, two were treated only with the secondary antibody (i.e., to determine background binding of enzyme conjugated Ab). TGase levels were determined by subtracting background from the readings from each treatment and determining mean ±s.d. for the replicates exposed to both Ab."}, "Human keratinocytes": {"tested_on": "Human keratinocytes", "test": "3H-Thymidine incorporation (keratinocyte proliferation)", "type": "cell-based", "conditions": "for effect on keratinocyte proliferation, in words: concentrations as in the respective Example; for activity at 0.001 µM: Table 4D, ROH 2.5 × 10^-8 M, linoleoyl-MEA 10^-9 M; for activity at 0.001 µM / activity at 1 µM: RA; for activity at 1 µM: Table 4C, retinol 2.5 × 10^-8 M, palmitoyl-MEA 10^-6 M", "experimental": "as §1\nThe incorporation of […] by cultured keratinocytes was used as an assay of keratinocyte proliferation. Thymidine is one of four deoxynucleosides which are the monomeric units of DNA, the universal library of genetic information in the animal kingdom. Prior to cell division of a somatic cell such as a keratinocyte, the complete genome of the cell undergoing cell division is replicated. This involves large scale DNA synthesis by the cell and enables both daughter cells to receive identical copies of the genetic material. When ^3 H-thymidine is included in the culture media of keratinocytes which are synthesizing DNA in preparation for cell division then the labelled nucleoside is incorporated into the newly synthesized DNA. The extent of incorporation of ^3 H-thymidine into a population of cells is proportional to the rate of DNA synthesis by this population of cells and therefore an indication of their cellular proliferation.\nKeratinocytes (that were cultured as described above) were plated in 24 well plates at a density of 40,000 cells per well in 1 ml media. After incubation for four days or until the cells were 60-70% confluent, the media was changed. Test compounds were added (in triplicate) to the wells 24 hours after the media change, and four hours later 1μCi^3 H-Thymidine in 50 μl media was added per well. Cells were incubated for a further 24 hours. Media was removed from the cells, 10% ice cold trichloroacetic acid (TCA) added and plates were incubated on ice for 30 minutes. Cells were washed five times with 5% TCA and allowed to dissolve in 500 μl 0.1M NaOH for at least one hour (usually overnight). The preparations were neutralized with 0.1M HCl; 50 μl of the cell preparation was used to determine total protein content. Disintegrations per minute (DPM) from ^3 H labelling of DNA was determined by liquid scintillation counting of […] of the cell preparation. Thymidine incorporation results were expressed as DPM/μg protein."}}, "note": "Where two headings read alike, the source gives them in different places.", "data": [{"smiles": "CC(N)=O", "note": "[Acetamide (C2), acetamide]", "values": [{"measurement": "activity at 0.1 µM", "setting": "[1]; Homo sapiens, Keratinocyte, Table 6B, RA, acetamide 10^-7 M, alone or combined, n = 3, read-out: TGase (TG1) level, % control", "result": 98, "unit": "%"}, {"measurement": "mean TGase level ± s.d", "setting": "[1]; Table 6B (Effect on Keratinocyte TGase), RA, acetamide 10^-7 M, alone or combined, n = 3", "result": "0.480 ± 0.042"}, {"measurement": "effect on keratinocyte TG1 levels / differentiation, in words", "setting": "[1]", "result": "no effect on keratinocyte TG1 levels"}]}, {"smiles": "NC=O", "note": "[Formamide (C1), formamide]", "values": [{"measurement": "activity at 0.1 µM", "setting": "[1]; Homo sapiens, Keratinocyte, Table 6A, RA, formamide 10^-7 M, alone or combined, n = 3, read-out: TGase (TG1) level, % control", "result": 85, "unit": "%"}, {"measurement": "mean TGase level ± s.d", "setting": "[1]; Table 6A (Effect on Keratinocyte TGase), RA, formamide 10^-7 M, alone or combined, n = 3", "result": "0.413 ± 0.069"}, {"measurement": "effect on keratinocyte TG1 levels / differentiation, in words", "setting": "[1]", "result": "small inhibitory effect on keratinocyte TG1 levels"}]}, {"smiles": "CCCCC/C=C\\C/C=C\\CCCCCCCC(=O)O", "note": "[Linoleic acid (LA), Linoleic acid]", "values": [{"measurement": "activity at 1 µM", "setting": "[1]; Homo sapiens, Keratinocyte, Table 5A, RA, retinol 2.5 × 10^-7 M, linoleic acid 10^-6 M, alone or combined, n = 3, read-out: TGase (TG1) level, % control", "result": "> 100", "unit": "%"}, {"measurement": "mean TGase ± s.d", "setting": "[1]; Table 5A, RA, retinol 2.5 × 10^-7 M, linoleic acid 10^-6 M, alone or combined, n = 3", "result": "0.161 ± 0.061"}, {"measurement": "effect on keratinocyte TG1 levels / differentiation, in words", "setting": "[1]", "result": "appeared to stimulate TG1"}]}, {"smiles": "CCCCC/C=C\\C/C=C\\CCCCCCCC(=O)OC", "note": "[Methyl linoleate, methyl linoleate]", "values": [{"measurement": "activity at 0.01 µM", "setting": "[1]; Homo sapiens, Keratinocyte, Table 5B, RA, retinol 2.5 × 10^-8 M, methyl linoleate 10^-8 M, alone or combined, n = 3, read-out: TGase (TG1) level, % control", "result": 67, "unit": "%"}, {"measurement": "mean TGase ± s.d", "setting": "[1]; Table 5B, RA, retinol 2.5 × 10^-8 M, methyl linoleate 10^-8 M, alone or combined, n = 3", "result": "0.193 ± 0.033"}, {"measurement": "effect on keratinocyte TG1 levels / differentiation, in words", "setting": "[1]", "result": "repressed TG1 to the same extent as 2.5×10^-8 M retinol"}]}, {"smiles": "CCCCC(=O)N(CCO)CCO", "note": "[Pentanoyl-DEA (C5-DEA)]", "values": [{"measurement": "activity at 0.1 µM", "setting": "[1]; Homo sapiens, Keratinocyte, Table 6C, RA, pentanoyl-DEA 10^-7 M, alone or combined, n = 3, read-out: TGase (TG1) level, % control", "result": 99, "unit": "%"}, {"measurement": "mean TGase level ± s.d", "setting": "[1]; Table 6C (Effect on Keratinocyte TGase), RA, pentanoyl-DEA 10^-7 M, alone or combined, n = 3", "result": "0.425 ± 0.079"}, {"measurement": "effect on keratinocyte TG1 levels / differentiation, in words", "setting": "[1]", "result": "no effect on keratinocyte TG1 levels"}]}, {"smiles": "CCCCCCCCCCCCCCCC(=O)OC/C=C(C)/C=C/C=C(C)/C=C/C1=C(C)CCCC1(C)C", "note": "[RP, retinyl palmitate]", "values": [{"measurement": "activity at 0.25 µM", "setting": "Human keratinocytes; Homo sapiens, Keratinocyte, 24 h, Table 3A, RA 2.5 × 10^-9 M, RP 2.5 × 10^-7 M, linoleoyl-DEA 10^-8 M, alone or combined, n = 3, read-out: thymidine incorporation, % control", "result": 111, "unit": "%"}, {"measurement": "mean Thymidine incorp./μg protein ± s.d", "setting": "Human keratinocytes; Table 3A, RA 2.5 × 10^-9 M, RP 2.5 × 10^-7 M, linoleoyl-DEA 10^-8 M, alone or combined, n = 3", "result": "1884 ± 64", "unit": "DPM/μg protein"}, {"measurement": "effect on keratinocyte proliferation, in words", "setting": "Human keratinocytes", "result": "increased keratinocyte thymidine incorporation over the control"}, {"measurement": "activity at 0.25 µM", "setting": "[1]; Homo sapiens, Keratinocyte, Table 3B, RA, RP 2.5 × 10^-7 M, linoleoyl-DEA 10^-6 M, alone or combined, n = 3, read-out: TGase (TG1) level, % control", "result": 82, "unit": "%"}, {"measurement": "activity at 2.5 µM", "setting": "[1]; Homo sapiens, Keratinocyte, Table 8A, 2.5 × 10^-6 M, n = 3, read-out: TGase, % control", "result": 95, "unit": "%"}, {"measurement": "activity at 0.25 µM", "setting": "[1]; Homo sapiens, Keratinocyte, Table 8A, 2.5 × 10^-7 M, n = 3, read-out: TGase, % control", "result": 82, "unit": "%"}, {"measurement": "activity at 0.025 µM", "setting": "[1]; Homo sapiens, Keratinocyte, Table 8A, 2.5 × 10^-8 M, n = 3, read-out: TGase, % control", "result": 82, "unit": "%"}, {"measurement": "activity at 0.0025 µM", "setting": "[1]; Homo sapiens, Keratinocyte, Table 8A, 2.5 × 10^-9 M, n = 3, read-out: TGase, % control", "result": 76, "unit": "%"}, {"measurement": "activity at 2.5 µM", "setting": "[1]; Homo sapiens, Keratinocyte, Table 8B, 2.5 × 10^-6 M, n = 3, read-out: TGase, % control", "result": 52, "unit": "%"}, {"measurement": "activity at 0.00025 µM", "setting": "[1]; Homo sapiens, Keratinocyte, Table 8B, 2.5 × 10^-10 M, n = 3, read-out: TGase, % control", "result": 108, "unit": "%"}, {"measurement": "mean TGase ± s.d", "setting": "[1]; Table 3B, RA, RP 2.5 × 10^-7 M, linoleoyl-DEA 10^-6 M, alone or combined, n = 3", "result": "0.177 ± 0.026"}, {"measurement": "mean TGase ± s.d", "setting": "[1]; Table 8A, 2.5 × 10^-6 M, n = 3", "result": "0.206 ± 0.034"}, {"measurement": "mean TGase ± s.d", "setting": "[1]; Table 8A, 2.5 × 10^-7 M, n = 3", "result": "0.177 ± 0.026"}, {"measurement": "mean TGase ± s.d", "setting": "[1]; Table 8A, 2.5 × 10^-8 M, n = 3", "result": "0.177 ± 0.054"}, {"measurement": "mean TGase ± s.d", "setting": "[1]; Table 8A, 2.5 × 10^-9 M, n = 3", "result": "0.165 ± 0.030"}, {"measurement": "mean TGase ± s.d", "setting": "[1]; Table 8B, 2.5 × 10^-6 M, n = 3", "result": "0.063 ± 0.019"}, {"measurement": "mean TGase ± s.d", "setting": "[1]; Table 8B, 2.5 × 10^-10 M, n = 3", "result": "0.132 ± 0.038"}]}, {"smiles": "CCCCC/C=C\\C/C=C\\CCCCCCCC(=O)NCCO", "note": "[linoleoyl-MEA, linoleoyl-monoethanolamide]", "values": [{"measurement": "activity at 0.001 µM", "setting": "Human keratinocytes; Homo sapiens, Keratinocyte, 24 h, alone or combined, 24 h, n = 3, read-out: thymidine incorporation, % control", "result": 67, "unit": "%"}, {"measurement": "activity at 0.001 µM", "setting": "Human keratinocytes; Homo sapiens, Keratinocyte, 24 h, alone or combined, 24 h, normalized to ethanol control, n = 3, read-out: mean Thymidine incorp./μg protein ± s.d", "result": "67 ± 18", "unit": "%"}, {"measurement": "effect on keratinocyte proliferation, in words", "setting": "Human keratinocytes", "result": "inhibitory effect on keratinocyte proliferation"}]}, {"smiles": "CCCCCCCCCCCCCCCC(=O)NCCO", "note": "[palmitoyl-MEA, palmitoyl-monoethanolamide]", "values": [{"measurement": "activity at 1 µM", "setting": "Human keratinocytes; Homo sapiens, Keratinocyte, 24 h, alone or combined, n = 3, read-out: thymidine incorporation, % control", "result": 97, "unit": "%"}, {"measurement": "activity at 1 µM", "setting": "Human keratinocytes; Homo sapiens, Keratinocyte, alone or combined, control = 1.000, n = 3, read-out: mean Thymidine incorp./μg protein ± s.d", "result": "97.4 ± 8", "unit": "%"}, {"measurement": "effect on keratinocyte proliferation, in words", "setting": "Human keratinocytes", "result": "Neither 10^-8 M palmitoyl-MEA nor 2.5×10^-8 M retinol had an effect on keratinocyte proliferation"}]}]}
